Publication PMC2858655, “Structural and Functional Characterization of Human Peripheral Nervous System Myelin Protein P2” (PLoS ONE, 2010)

Experiments:
[1] = target: T1, human myelin P2 protein (untagged) (Homo sapiens, UniProt P02689); assay: X-ray crystallography, […] Å; assay type: binding; conditions: fatty acid carried over from E. coli, identity modelled from electron density; inside barrel cavity; pH 8.5
T1 construct: gene PMP2

[2] = target: T2, His-tagged P2 protein (His-P2) (Homo sapiens, UniProt P02689); assay: intrinsic Trp fluorescence quenching; assay type: binding; conditions: 9.4 µM protein, 10 µM cholesterol, 1% ethanol, HEPES, 150 mM NaCl, pH 7.5, 120 min, room temperature, excitation 280 nm
T2 construct: gene PMP2; full length, N-terminal His6 tag with TEV site kept (pTH27), E. coli Rosetta(DE3)

Structure (SMILES)	X-ray crystallography, 1.85 Å [1]	decrease of fluorescence intensity [2]
CCCCCCCCCCCCCCCC(=O)O [palmitate]	a palmitate molecule, well-defined in the electron density (Figure 2B,4A), was modeled into the lipid-binding cavity	
CC(C)CCC[C@@H](C)[C@H]1CC[C@H]2[C@@H]3CC=C4C[C@@H](O)CC[C@]4(C)[C@H]3CC[C@]12C [cholesterol]		~ 25%
